Source: patent US8962664B2, “Selective glycosidase inhibitors and uses thereof” (Simon Fraser University, priority 2006, dated 2015)
Entries after “also recorded” stand apart in the source; their conditions may differ.

Assays:
[1] = Nine-month repeat dose toxicology study in mice: urinalysis; format: in vivo, wild-type JNPL3 mice; settings: mice dosed orally nine months, week 40, pooled urine; F2: NAG-Bt 100 then 1000 mg/kg/day (n = 2); F1: NAG-Bt 100 then NAG-AE 500 mg/kg/day (n = 3)
Method: (§1) The toxicological effects of repeated oral administration of (3aR,5R,6S,7R,7aR)-5-(hydroxymethyl)-2-propyl-5,6,7,7a-tetrahydro-3aH-pyrano[3,2-d]thiazole-6,7-diol (NAG-Bt) and (3aR,5R,6S,7R,7aR)-2-(ethylamino)-5-(hydroxymethyl)-5,6,7,7a-tetrahydro-3aH-pyrano[3,2-d]thiazole-6,7-diol (NAG-AE) to wild-type JNPL3 mice over nine months was measured. All animals were obtained from Taconic Farms, Inc. (model number 001638-W-F), and were 10-12 weeks of age at delivery, designated “week 1” of the study. In week 1, the mice were split into three groups: Group E received vehicle alone throughout the study; Group F1 received 100 mg/kg/day NAG-Bt in their food from week 1 to week 15, then were switched to 500 mg/kg/day NAG-AE in their drinking water from week 16 to week 40; Group F2 received 100 mg/kg/day NAG-Bt in their food from week 1 to week 15 then were switched to 1000 mg/kg/day NAG-Bt in their drinking water from week 16 to week 40. […] In week 40, blood and urine samples were collected from animals in each group; the urine samples for animals in each group were pooled prior to analysis, while the blood samples were analyzed individually.

[2] = Nine-month repeat dose toxicology study in mice: general observations; format: in vivo, wild-type JNPL3 mice; settings: oral, nine months, comparatively high levels
Method: as §1

[3] = Nine-month repeat dose toxicology study in mice: hematology (CBC) and serum chemistry; format: in vivo, wild-type JNPL3 mice; settings: oral, nine months
Method: as §1

[4] = test system: tau phosphorylation and NFT formation; assay: Reduction of NFT formation in transgenic P301L JNPL3 mice; format: in vivo; settings: oral, Group B NAG-Bt 100 then 1000 mg/kg/day; for protein O-GlcNAc modification in hippocampal brain sections: Group D NAG-AE 500 mg/kg/day weeks 16 to 32, anti-OGlcNAc staining; for tau phosphorylation and NFT formation in hippocampal brain sections: Group D NAG-AE 500 mg/kg/day weeks 16 to 32, anti-phospho Tau-Ser404 staining, vs untreated transgenic Group A
Method: Animal Dosing and Tissue Collection. Hemizygous transgenic female JNPL3 mice overexpressing human mutant tau protein (P301L) and wild type control mice were obtained from Taconic Farms, Inc. (model numbers 001638-T-F and 001638-W-F, respectively). The mice were 10-12 weeks of age at delivery, designated “week 1” of the study. In week 1, the mice were split into four groups: Group A (transgenic mice) received vehicle alone throughout the study; Group B (transgenic mice) received 100 mg/kg/day NAG-Bt in their food from week 1 to week 15, then were switched to 1000 mg/kg/day NAG-Bt in their drinking water from week 16 to week 32; Group D (transgenic mice) received vehicle alone from weeks 1 to 15, and then 500 mg/kg/day NAG-AE in their drinking water from weeks 16 to 32; Group E (wild-type) received vehicle alone throughout the study. In week 32, three animals per group were sacrificed and tissues were collected. Transgenic mice and controls were sacrificed using a CO2 chamber. About 45 seconds after they stopped breathing, they were perfused transcardially with 30 mL of 0.9% NaCl buffer followed by 30 mL of 4% paraformaldehyde (w/v in 1× phosphate-buffered saline, PBS, pH 7.4). The brains were then carefully dissected and post-fixed in 4% parformaldehyde before being cryoprotected in 20% sucrose (w/v in 1×PBS) for 24 hours at 4° C.
Cryostat sectioning. The brains were then mounted with optimal cutting temperature (OCT) medium (Tissue Tek) and sectioned sagittally on a Reichert-Jung Cryocut 1800 (Leica) using Feather microtome blades (Tissue Tek) at 50 μm and placed in 1×PBS for further processing. The cryostat temperature was set at −17° C. to −19° C.
Immunohistochemical Staining. Free-floating 50 μm sagittal sections (lateral about 0.6 mm from midline, Mouse Brain in Stereotaxic Coordinates, second edition, by George Paxinos and Leith B. J. Franklin) were permeabilized with 1×PBS containing 0.3% Triton X-100 for 15 min. After blocking with 10% goat serum and 2.5% BSA for 1 h at room temperature, sections were incubated with specific antibodies overnight at 4° C. (primary antibodies: anti-OGlcNAc, Covance; anti-phospho Tau-ser404, Santa Cruz). The sections then were washed three times with 0.3% Triton X-100 in PBS for 15 min each and incubated with specific secondary antibody conjugated with Cy3 or FITC for 1.5 h at room temperature in the dark. After several washes in 1×PBS, sections were mounted on slides and air-dried in the dark. Once dry, Vectashield Mounting Medium (Vector Laboratories, Inc.) was added to the slide before applying coverslips. Coverslips were sealed with clear nail enamel and slides were stored in dark at 4° C. For negative control staining, sections were incubated without primary antibodies.
Imaging. […]

Row | Compound | Urine Appear [1] | Urine Bilirubin [1] | Urine Blood [1] | Urine Cocci [1] | Urine Color [1] | Urine Creatinine [1] | Urine Epith [1] | Urine Glucose [1] | Urine Ketones [1] | Urine Protein [1] | Urine RBC [1] | Urine Rods [1] | Urine Sp. Grv. [1] | Urine Urobil [1] | Urine WBC [1] | Urine pH [1] | toxicological consequences of long-term dosing [2] | changes in ALT, AST, or sorbitol dehydrogenase (liver toxicity) [3] | protein O-GlcNAc modification in hippocampal brain sections [4] | tau phosphorylation and NFT formation in hippocampal brain sections [4]
1 | CCNC1=N[C@@H]2[C@@H](O)[C@H](O)[C@@H](CO)O[C@@H]2S1 [NAG-AE, (3aR,5R,6S,7R,7aR)-2-(ethylamino)-5-(hydroxymethyl)-5,6,7,7a-tetrahydro-3aH-pyrano[3,2-d]thiazole-6,7-diol] | Slcloudy | Neg | Neg | Neg | Yellow | 3105.4 | Few | Neg | Neg | Neg | Neg | Neg | 1.039 | Normal | Neg | 6 | no serious toxicological consequences | no changes | dramatically elevated | dramatically reduced; also recorded: significantly decreased
2 | CCCC1=N[C@@H]2[C@@H](O)[C@H](O)[C@@H](CO)O[C@@H]2S1 [NAG-Bt, (3aR,5R,6S,7R,7aR)-5-(hydroxymethyl)-2-propyl-5,6,7,7a-tetrahydro-3aH-pyrano[3,2-d]thiazole-6,7-diol] | Clear | Neg | – | Neg | Yellow | 7790.9 | Few | Neg | Neg | Neg | Neg | Neg | 1.05 | Normal | Neg | 5 | no serious toxicological consequences | no changes | dramatically elevated | dramatically reduced; also recorded: significantly decreased
